According to ChEMBL document CHEMBL1158071, “Pterulamides I-VI, linear peptides from a Malaysian Pterula sp” (J Nat Prod, 2006):
Non-standard residues stand in square brackets, D forms with d. Residues, ends and D or L forms follow the SMILES beside them. *: point of attachment. NMeI = CC[C@H](C)[C@H](NC)C(=O)O; NMeV = CN[C@H](C(=O)O)C(C)C; X2 = C[S+]([O-])/C=C/C(=O)*; NMeA = CN[C@@H](C)C(=O)O; X1 = O=C(/C=C/c1ccccc1)*

System: P388
Experiment: Cytotoxicity against mouse P388 cells
Type: functional, cell-based

| SMILES | IC50 [µM] |
| --- | --- |
| CC[C@H](C)[C@@H](C(=O)NC)N(C)C(=O)[C@@H](NC(=O)[C@H](C(C)C)N(C)C(=O)[C@H]([C@@H](C)CC)N(C)C(=O)[C@H](C)N(C)C(=O)/C=C/[S+](C)[O-])C(C)C (some centres not stated) [PTERULAMIDE I] (X2-[NMeA][NMeI][NMeV]V[NMeI]-NHMe) | 0.79 |
| CC[C@H](C)[C@@H](C(=O)NC)N(C)C(=O)[C@@H](NC(=O)[C@H](C(C)C)N(C)C(=O)[C@H]([C@@H](C)CC)N(C)C(=O)[C@H](C)N(C)C(=O)/C=C/c1ccccc1)C(C)C [PTERULAMIDE IV] (X1-[NMeA][NMeI][NMeV]V[NMeI]-NHMe) | 1.33 |
